Test results published in ChEMBL document CHEMBL6096639, “Discovery of the first selective and potent PROTAC degrader for the pseudokinase TRIB2” (Eur J Med Chem, 2025).
Calls of active or inactive are those of the source. The rule behind the calls is not given here.

How the values were obtained:
PC-3 [1] = assay: Antiproliferative activity against human PC-3 cells assessed as cell viability for 5 days by CTG assay; format: functional, cell-based; conditions: PC-3, 120 h
[2] = Antiproliferative activity against human LTL-331R-CL cells assessed as cell viability for 5 days by CTG assay; format: functional, cell-based; conditions: 120 h
[3] = molecular target: T1, Protein cereblon/Tribbles homolog 2 (Homo sapiens, UniProt Q96SW2+Q92519); assay: PROTAC activity at CNRB/TRIB2 in human PC-3 cells assessed as induction of TRIB2 degradation at 0.5 uM pretreated with pomalidomide followed by compound addition and measured after 16 hrs by immunoblotting assay; format: cell-based
Target sequence in this assay (Q96SW2 whole entry, looked up, one chain of several): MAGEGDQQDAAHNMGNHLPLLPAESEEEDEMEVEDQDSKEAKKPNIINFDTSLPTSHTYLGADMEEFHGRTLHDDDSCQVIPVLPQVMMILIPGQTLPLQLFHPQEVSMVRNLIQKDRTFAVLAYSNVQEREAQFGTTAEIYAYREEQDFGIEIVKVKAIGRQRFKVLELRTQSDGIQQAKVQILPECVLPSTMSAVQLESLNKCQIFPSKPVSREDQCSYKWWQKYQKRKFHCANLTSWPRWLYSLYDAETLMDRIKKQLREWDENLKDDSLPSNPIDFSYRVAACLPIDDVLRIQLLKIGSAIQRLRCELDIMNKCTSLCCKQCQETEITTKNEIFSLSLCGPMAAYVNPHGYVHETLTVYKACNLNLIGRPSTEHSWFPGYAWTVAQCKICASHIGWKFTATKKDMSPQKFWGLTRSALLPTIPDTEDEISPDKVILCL

[4] = molecular target: T1, Protein cereblon/Tribbles homolog 2; assay: PROTAC activity at CRBN/TRIB2 in human NCI-H660 cells assessed as induction of TRIB2 degradation at 1 uM by immunoblotting analysis; format: cell-based
Target sequence in this assay (Q96SW2 whole entry, looked up, one chain of several): as above

[5] = molecular target: T1, Protein cereblon/Tribbles homolog 2; assay: PROTAC activity at CRBN/TRIB2 in human PC-3 cells assessed as induction of TRIB2 degradation for 24 hrs by immunoblot analysis; format: cell-based
[6] = molecular target: T2, Tribbles homolog 2 (Homo sapiens) (UniProt Q92519); assay: Induction of thermal stabilization of TRIB2 in human PC-3 cells […] at 2 uM preincubated for 3 hrs followed by compound washout and incubated under 45 to 50 degreeC for 3 mins by CETSA based immunoblotting analysis; format: cell-based
T2 sequence (whole entry): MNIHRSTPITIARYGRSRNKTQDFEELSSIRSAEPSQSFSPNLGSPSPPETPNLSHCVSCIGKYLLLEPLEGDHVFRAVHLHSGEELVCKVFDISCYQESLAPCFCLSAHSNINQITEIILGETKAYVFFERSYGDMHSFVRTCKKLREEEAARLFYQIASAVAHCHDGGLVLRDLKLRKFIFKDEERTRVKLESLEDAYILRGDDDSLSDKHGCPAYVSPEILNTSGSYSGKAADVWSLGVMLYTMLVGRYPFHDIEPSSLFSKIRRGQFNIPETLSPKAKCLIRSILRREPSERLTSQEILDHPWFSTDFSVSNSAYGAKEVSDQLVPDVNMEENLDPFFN

[7] = molecular target: T1, Protein cereblon/Tribbles homolog 2; assay: PROTAC activity at CNRB/TRIB2 in human LTL-331R-CL cells assessed as induction of TRIB2 degradation at 1 uM for 4 hrs by immunoblotting assay; format: cell-based
Target sequence in this assay (Q96SW2 whole entry, looked up, one chain of several): as the sequence (Q96SW2 whole entry, looked up, one chain of several) above

[8] = molecular target: T1, Protein cereblon/Tribbles homolog 2; assay: PROTAC activity at CRBN/TRIB2 in human PC-3 cells assessed as half maximal degradation by measuring half life at 500 nM by immunoblotting analysis; format: cell-based
Target sequence in this assay (Q96SW2 whole entry, looked up, one chain of several): as the sequence (Q96SW2 whole entry, looked up, one chain of several) above

[9] = molecular target: T3, von Hippel-Lindau disease tumor suppressor/Tribbles homolog 2 (Homo sapiens) (UniProt P40337+Q92519); assay: PROTAC activity at VHL/TRIB2 in human PC-3 cells assessed as induction of TRIB2 degradation at 100 nM for 24 hrs by immunoblotting analysis; format: cell-based
[10] = molecular target: T3, von Hippel-Lindau disease tumor suppressor/Tribbles homolog 2 (Homo sapiens); assay: PROTAC activity at VHL/TRIB2 in human PC-3 cells assessed as induction of TRIB2 downregulation at 1000 nM for 24 hrs by immunoblotting analysis; format: cell-based
[11] = molecular target: T1, Protein cereblon/Tribbles homolog 2; assay: PROTAC activity at CRBN/TRIB2 in human LTL-331R-CL cells assessed as induction of TRIB2 degradation at 1 uM by immunoblotting analysis; format: cell-based
Target sequence in this assay (Q96SW2 whole entry, looked up, one chain of several): as the sequence (Q96SW2 whole entry, looked up, one chain of several) above

[12] = molecular target: T1, Protein cereblon/Tribbles homolog 2; assay: PROTAC activity at CRBN/TRIB2 in human PC-3 cells assessed as induction of TRIB2 degradation by measuring maximal efficacy at 100 nM measured after 24 hrs by immunoblot analysis relative to control; format: cell-based
Target sequence in this assay (Q96SW2 whole entry, looked up, one chain of several): as the sequence (Q96SW2 whole entry, looked up, one chain of several) above

[13] = molecular target: T1, Protein cereblon/Tribbles homolog 2; assay: PROTAC activity at CNRB/TRIB2 in human LTL-331R-CL cells assessed as induction of TRIB2 degradation at 1 uM for 4 hrs by comprehensive proteomic analysis using a tandem mass tag (TMT) labeled mass spectrometry; format: cell-based
PC-3 [14] = assay: Antiproliferative activity against human PC-3 cells assessed as cell viability at 1 uM by CTG assay; format: functional, cell-based
LTL-331R-CL = assay: Antiproliferative activity against human LTL-331R-CL cells assessed as cell viability at 1 uM by CTG assay; format: functional, cell-based
[15] = molecular target: T1, Protein cereblon/Tribbles homolog 2; assay: PROTAC activity at CRBN/TRIB2 in human PC-3 cells assessed as induction of TRIB2 degradation at 500 nM in presence of 1 uM bortezomib proteasome inhibitor pretreatment for 16 hrs by Western blot analysis; format: cell-based
HepG2 = assay: Antiproliferative activity against human HepG2 cells assessed as cell viability; format: functional
Tribbles homolog 2 = molecular target: T4, Tribbles homolog 2 (Homo sapiens, UniProt Q92519); assay: Inhibition of TRIB2 (unknown origin) assessed as reduction in ATP binding affinity incubated for 120 mins in presence of Mg/ATP by radiometric kinase assay
T4 sequence (Q92519 whole entry): T2 sequence (whole entry)

A549 = assay: Antiproliferative activity against human A549 cells assessed as cell viability; format: functional
[16] = molecular target: T1, Protein cereblon/Tribbles homolog 2; assay: PROTAC activity at CRBN/TRIB2 in human PC-3 cells assessed as induction of TRIB2 degradation by measuring maximal efficacy at 1 nM measured after 24 hrs by immunoblot analysis relative to control; format: cell-based

T3 sequence (P40337 whole entry, looked up, one chain of several): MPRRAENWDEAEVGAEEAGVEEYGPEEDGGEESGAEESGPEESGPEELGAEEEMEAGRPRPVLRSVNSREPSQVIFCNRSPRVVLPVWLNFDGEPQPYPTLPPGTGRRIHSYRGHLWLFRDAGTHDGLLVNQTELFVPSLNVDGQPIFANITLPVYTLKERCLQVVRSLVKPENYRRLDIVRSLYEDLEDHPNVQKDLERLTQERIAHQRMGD

For `O=C1CCC(N2C(=O)c3ccc(NCCCCCCCCCC(=O)N4CCc5ccc(NC(=O)c6n[nH]c7ccc(-c8cccnc8F)cc67)cc5C4)cc3C2=O)C(=O)N1` (stereo unspecified), which IC50 (PC-3 [1]) is on record?
The IC50 was 3.9 nM.

What about the IC50 [2] of the same compound?
Its IC50 is 30.4 nM.

And the Activity [3]?
Its Activity is “inactive”.

What about the Activity [4] of the same compound?
The Activity was “Time-dependent-effect”.

What about the Activity [5] of the same compound?
The Activity was “Dose-dependent-effect”.

What about the DC50 [5] of the same compound?
The DC50 was 16.8 nM.

What about the Activity [6] of the same compound?
Its Activity is “Active”.

And the Activity [7]?
The Activity was “Active”.

And the T1/2 [8]?
Its T1/2 is over 5.5 h.

What about the Activity [9] of the same compound?
Its Activity is 100%.

And the Activity [10]?
The Activity was “Active; Mild Trib2 Degradation Observed”.

What about the Activity [11] of the same compound?
Its Activity is “Active”.

And the Emax [12]?
Its Emax is 92%.

What about the Activity [13] of the same compound?
Its Activity is “Active”.

What about the Activity (PC-3 [14]) of the same compound?
The Activity was “Active”.

What about the Activity (LTL-331R-CL) of the same compound?
The Activity was “Active”.

And the Activity [15]?
Its Activity is “inactive”.

With `O=C1CCC(N2C(=O)c3ccc(NCCCCCCCC(=O)N4CCc5ccc(NC(=O)c6n[nH]c7ccc(-c8cccnc8F)cc67)cc5C4)cc3C2=O)C(=O)N1` (stereo unspecified) as the compound, how does the Emax [12] read?
The Emax was 58.2%.

For `Nc1cccc2c1C(=O)N(C1CCC(=O)NC1=O)C2=O` (stereo unspecified) [POMALIDOMIDE], which IC50 (PC-3 [1]) is on record?
Its IC50 is over 5000 nM.

And the IC50 [2]?
The IC50 was over 30000 nM.

For `CN1C(=O)CCC(N2C(=O)c3ccc(NCCCCCCCCCC(=O)N4CCc5ccc(NC(=O)c6n[nH]c7ccc(-c8cccnc8F)cc67)cc5C4)cc3C2=O)C1=O` (stereo unspecified), which IC50 (PC-3 [1]) is on record?
The IC50 was over 5000 nM.

What about the IC50 [2] of the same compound?
The IC50 was over 30000 nM.

With `O=C1CCC(N2C(=O)c3ccc(NCCCC(=O)N4CCc5ccc(NC(=O)c6n[nH]c7ccc(-c8cccnc8F)cc67)cc5C4)cc3C2=O)C(=O)N1` (stereo unspecified) as the compound, how does the Emax [12] read?
The Emax was 84.1%.

For `O=C(Nc1ccc2c(c1)CNCC2)c1n[nH]c2ccc(-c3cccnc3F)cc12`, which IC50 (PC-3 [1]) is on record?
Its IC50 is 802 nM.

And the IC50 [2]?
Its IC50 is 868 nM.

And the Activity [6]?
The Activity was “Active”.

What about the Activity (HepG2) of the same compound?
The Activity was 10%.

And the IC50 (Tribbles homolog 2)?
Its IC50 is 65.2 nM.

What about the Activity (A549) of the same compound?
Its Activity is 12%.

For `O=C1CCC(N2C(=O)c3ccc(NCCCCCC(=O)N4CCc5ccc(NC(=O)c6n[nH]c7ccc(-c8cccnc8F)cc67)cc5C4)cc3C2=O)C(=O)N1` (stereo unspecified), which Emax [16] is on record?
The Emax was 24.5%.

What about the Emax [12] of the same compound?
The Emax was 85.6%.
